According to patent US4107165A, “Tris[tetrahydroisoquinoline] compounds” (Endo Laboratories, priority 1976, dated 1978):

Legend:
[1] = system: rats; assay: toxicity, intraperitoneal administration to rats; format: in vivo; settings: at 0.01 mg./kg. and at 10 mg./kg.
Excerpt: An outstanding feature of the compounds of this invention is their relative lack of toxicity. Although they are active at very low dose levels, it is possible to exceed minimum effective levels by wide margins without encountering serious adverse reactions. This permits the compounds to be used within wide limits without concern about undesirable side effects, as are so frequently encountered upon inadvertent overdosage of other substances of great potency.

[2] = system: whole blood clot; assay: whole blood clot lysis method (fibrinolytic activity), blood from rats given compound intraperitoneally; format: in vivo; settings: Rattus norvegicus, ip, 4 h, intraperitoneal, blood diluted 1:10, clotted with thrombin, 37° C, four hours, read-out: ED50 (dose which causes lysis of 50% of the clot)
Description: Certain representative compounds within the scope of the present invention have been tested for fibrinolytic activity by the whole blood clot lysis method, as modified from the procedure of Billimoria et al.^1 In this method, blood from rats given a fibrinolytic compound intraperitoneally is taken and diluted 1:10. A standard amount is clotted with thrombin, incubated at 37° C for four hours, and the amount of clot that has lysed is determined. […] These ED50 values for the various compounds tested are set forth in the following table, each of the compounds being identified by name and by the number of the ensuing example in which its synthesis is described. […] ^1 Billimoria, […]., James, […]., Lancet II, 471 (1959)

[3] = system: ADP-induced platelet aggregation; assay: inhibition of ADP-induced platelet aggregation in platelet rich plasma; format: cell-based; settings: 5 min; human platelet rich plasma, 37° C, five minutes incubation prior to ADP; read-out: ED50 (amount which reduces platelet aggregation by 50%)
Description: Another selection of representative compounds within the scope of the present invention, including some listed in the previous table, have been tested for their ability to inhibit platelet aggregation. Citrated whole blood from human volunteers, who had not taken any medicine for the previous week, was centrifuged to obtain platelet rich plasma. On addition of ADP (adenosine diphosphate) to this platelet rich plasma, incubated at 37° C with constant stirring, in an aggregometer, optical density changes can be observed which are caused by platelet aggregation. Thus, the extent of ADP-induced platelet aggregation is determined for each sample of blood used. Compounds to be tested were incubated for five minutes prior to the addition of ADP. The ED50 of a compound is that amount, in γ/ml, which reduces platelet aggregation by 50% under the above conditions.

## COc1cc2c(cc1OC)C(CCCCC(CCC1NCCc3cc(OC)c(OC)cc31)CCC1NCCc3cc(OC)c(OC)cc31)NCC2.Cl.Cl.Cl (stereo not drawn) [Example 1.1, 1,1'-{3-[2-(1,2,3,4-tetrahydro-6,7-dimethoxy-1-isoquinolinyl)ethyl]heptamethylene}bis[1,2,3,4-tetrahydro-6,7-dimethoxyisoquinoline] trihydrochloride]
[1]
  toxicity: without producing toxicity
[2]
  ED50: 0.02 mg/kg
[3]
  IC50: 6 µg/mL
